Data reported in patent US8178506B2, “Oligomeric compounds and compositions for use in modulation of small non-coding RNAs” (Regulus Therapeutics Inc., priority 2003, dated 2012).
In the oligonucleotide strings, read from the 5' end, every base follows the letter of its sugar. An asterisk marks phosphorothioate; unmarked linkages are phosphodiester. Other units and linkages are bracketed, terminal groups are in braces. A string of capitals states the bases alone. e = 2'-O-(2-methoxyethyl) (MOE); [5mC] = 5-methylcytosine

Tested on: mir-15a pri-miRNA
Test: mir-15a pri-miRNA expression in T47D cells (real-time RT-PCR)
Assay type: cell-based, human
Details: real-time RT-PCR
Procedure, shortened: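 T47D cells transfected with 100 nM uniform 2′-MOE or gapmer oligomers. Pri-miRNA measured by real-time RT-PCR with a mir-15a-specific primer/probe set, normalized to 5.8S rRNA, expressed as percentage of untreated control RNA levels.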

Substance | mir-15a pri-miRNA expression % UTC [% UTC]
327901 (antisense eT*eG*eA*eG*e[5mC]*eT*eA*e[5mC]*eA*eG*eT*eG*e[5mC]*eT*eT*e[5mC]*eA*eT*e[5mC]*eT*e[5mC]*eA) [compound 327901] | 132
327951 (antisense e[5mC]*eA*e[5mC]*eA*eA*eA*e[5mC]*e[5mC]*eA*eT*eT*eA*eT*eG*eT*eG*e[5mC]*eT*eG*e[5mC]*eT*eA) [compound 327951] | 713
